Laboratory results as given in patent US20100010219A1, “METHOD FOR PRODUCING PYRROLIDINE COMPOUND” (JAPAN TOBACCO INC., priority 2006, published 2010).
Structures can show the parent of a compound that is named as a salt.

Biological target: T1, human HSD-1 (recombinant HSD-1) (Homo sapiens, UniProt P28845)
T1 construct: made in house
Assay: HSD-1 activity inhibitory action in vitro (SPA, conversion of cortisone to cortisol)
Format: biochemical
Conditions: recombinant human HSD-1 expressed using baculovirus system; 10 nM 3H cortisone, 500 μM NADPH; room temperature 90 to 120 min; read-out: hHSD1 (IC50 (nM))

T1 sequence (P28845 whole entry): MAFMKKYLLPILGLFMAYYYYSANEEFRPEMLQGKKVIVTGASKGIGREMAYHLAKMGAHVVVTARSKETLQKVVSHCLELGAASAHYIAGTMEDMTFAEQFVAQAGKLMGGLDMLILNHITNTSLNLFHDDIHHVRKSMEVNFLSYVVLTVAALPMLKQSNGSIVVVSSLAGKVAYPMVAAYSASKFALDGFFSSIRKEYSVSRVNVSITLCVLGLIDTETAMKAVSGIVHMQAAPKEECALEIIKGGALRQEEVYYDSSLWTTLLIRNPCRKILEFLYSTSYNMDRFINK

| Structure (SMILES) | IC50 [nM] |
| --- | --- |
| COCC1(c2ccccc2)CCN(C(=O)c2cnn(C3CCN(c4ccc(Cl)cn4)CC3)c2C2(C)CC2)C1 (stereo not drawn) [Example 174, 1-{1-[1-(5-chloropyridin-2-yl)piperidin-4-yl]-5-(1-methylcyclopropyl)-1H-pyrazole-4-carbonyl}-3-methoxymethyl-3-phenylpyrrolidine] | < 30 |
| N#Cc1ccc(N2CCC(n3ncc(C(=O)N4CCC(c5ccccc5C(F)(F)F)C4)c3C3CC3)CC2)nc1 (stereo not drawn) [Example 175, 1-{1-[1-(5-cyanopyridin-2-yl)piperidin-4-yl]-5-cyclopropyl-1H-pyrazole-4-carbonyl}-3-(2-trifluoromethylphenyl)pyrrolidine] | < 30 |
| CC(=O)OCCC1(c2ccc(F)cc2)CCN(C(=O)c2cnn(C3CCN(c4ncccn4)CC3)c2C2(C)CC2)C1 (stereo not drawn) [Example 176, 3-(2-acetoxyethyl)-3-(4-fluorophenyl)-1-{5-(1-methylcyclopropyl)-1-[1-(pyrimidin-2-yl)piperidin-4-yl]-1H-pyrazole-4-carbonyl}pyrrolidine hydrochloride] | < 30 |
| COC(=O)c1ccc(N2CCC(n3ncc(C(=O)N4CCC(c5ccccc5C(F)(F)F)C4)c3C3CC3)CC2)nc1 (stereo not drawn) [Example 178, methyl 6-(4-{5-cyclopropyl-4-[3-(2-trifluoromethylphenyl)pyrrolidine-1-carbonyl]pyrazol-1-yl}piperidin-1-yl)nicotinate] | < 30 |
| COC(=O)c1ccccc1C1CCN(C(=O)c2cnn(C3CCN(c4ncccn4)CC3)c2C2(C)CC2)C1 (stereo not drawn) [Example 179, methyl 2-{1-[5-(1-methylcyclopropyl)-1-(1-pyrimidin-2-ylpiperidin-4-yl)-1H-pyrazole-4-carbonyl]pyrrolidin-3-yl}benzoate] | < 30 |
| CC1(c2c(C(=O)N3CCC(c4ccccc4CO)C3)cnn2C2CCN(c3ncccn3)CC2)CC1 (stereo not drawn) [Example 180, 3-(2-hydroxymethylphenyl)-1-{5-(1-methylcyclopropyl)-1-[1-(pyrimidin-2-yl)piperidin-4-yl]-1H-pyrazole-4-carbonyl}pyrrolidine hydrochloride] | < 30 |
| CC(=O)Nc1ccc(N2CCC(n3ncc(C(=O)N4CCC(c5ccccc5C(F)(F)F)C4)c3C3CC3)CC2)cc1 (stereo not drawn) [Example 182, 1-{1-[1-(4-acetylaminophenyl)piperidin-4-yl]-5-cyclopropyl-1H-pyrazole-4-carbonyl}-3-(2-trifluoromethylphenyl)pyrrolidine] | < 30 |
| O=C(O)c1ccc(N2CCC(n3ncc(C(=O)N4CCC(c5ccccc5C(F)(F)F)C4)c3C3CC3)CC2)c(F)c1 (stereo not drawn) [Example 183, Sodium 4-(4-{5-cyclopropyl-4-[3-(2-trifluoromethylphenyl)pyrrolidine-1-carbonyl]pyrazol-1-yl}piperidin-1-yl)-3-fluorobenzoate] | < 30 |
| N#Cc1ccccc1C1CCN(C(=O)c2cnn(C3CCN(C(=O)Nc4ccccc4F)CC3)c2C2CC2)C1 (stereo not drawn) [Example 184, 3-(2-cyanophenyl)-1-{5-cyclopropyl-1-[1-(2-fluorophenylcarbamoyl)piperidin-4-yl]-1H-pyrazole-4-carbonyl}pyrrolidine] | < 30 |
| COc1ccnc(N2CCC(n3ncc(C(=O)N4CCC(CO)(c5ccccc5)C4)c3C3(C)CC3)CC2)n1 (stereo not drawn) [Example 185, 3-hydroxymethyl-1-{1-[1-(4-methoxypyrimidin-2-yl)piperidin-4-yl]-5-(1-methylcyclopropyl)-1H-pyrazole-4-carbonyl}-3-phenylpyrrolidine hydrochloride] | < 30 |
| CC1(c2c(C(=O)N3CCC(CO)(c4cc(F)cc(F)c4)C3)cnn2C2CCN(c3ncccn3)CC2)CC1 (stereo not drawn) [Example 186, 3-(3,5-difluorophenyl)-3-hydroxymethyl-1-{5-(1-methylcyclopropyl)-1-[1-(pyrimidin-2-yl)piperidin-4-yl]-1H-pyrazole-4-carbonyl}pyrrolidine hydrochloride] | < 30 |
| O=C(c1cnn(C2CCN(c3ncccc3Cl)CC2)c1C1CC1)N1CCC(c2cccnc2)C1 (stereo not drawn) [Example 187, 1-{1-[1-(3-chloropyridin-2-yl)piperidin-4-yl]-5-cyclopropyl-1H-pyrazole-4-carbonyl}-3-(pyridin-3-yl)pyrrolidine] | < 30 |
| CC(C)[C@@H](C(=O)O)N(C)C(=O)[C@H]1CC[C@H](n2ncc(C(=O)N3CCC(c4ccccc4C(F)(F)F)C3)c2C2CC2)CC1 (stereo partly drawn) [Example 189, (S)-2-[(trans-4-{5-cyclopropyl-4-[3-(2-trifluoromethylphenyl)pyrrolidine-1-carbonyl]pyrazol-1-yl}cyclohexanecarbonyl)methylamino]-3-methylbutyric acid] | < 30 |
| CC1(c2c(C(=O)N3CCC(c4ccccc4C(F)(F)F)C3)cnn2[C@H]2CC[C@H](C(=O)Nc3ccccc3F)CC2)CC1 (stereo partly drawn) [Example 190, 1-{5-(1-methylcyclopropyl)-1-[trans-4-(2-fluorophenylcarbamoyl)cyclohexyl]-1H-pyrazole-4-carbonyl}-3-(2-trifluoromethylphenyl)pyrrolidine] | < 30 |
| CC1(c2c(C(=O)N3CCC(c4ccccc4C(F)(F)F)C3)cnn2[C@H]2CC[C@@H](C(=O)O)CC2)CC1 (stereo partly drawn) [Example 191, cis-4-{5-(1-methylcyclopropyl)-4-[3-(2-trifluoromethylphenyl)pyrrolidine-1-carbonyl]pyrazol-1-yl}cyclohexanecarboxylic acid] | < 30 |
